Experimental data published in PubChem BioAssay AID328 (DTP/NCI, 2004).
Values joined by “and” are separate entries in the source; they are usually repeats but may differ in a detail not shown here. Equal entries are not always repeated. Inconclusive results and toxic doses are left out. Rule for the calls: active = survival T/C of 150% or more; inactive = T/C below 125% in these data.

System: BDF1 mice, P388 leukemia ip, median survival T/C
Assay: NCI In Vivo Anticancer Drug Screen. Data for tumor model P388 Leukemia (intraperitoneal) in B6D2F1 (BDF1) mice
Conditions: endpoint: median survival time, higher = longer survival
How it was run: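 Reported as T/C, where T is the survival measurement in dosed animals and C the same measurement in vehicle controls.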

[1] = dose: 25.0 mg/kg/injection, schedule: Q01DX009 (ip), vehicle: saline with Tween-80
[2] = dose: 50.0 mg/kg/injection, schedule: Q01DX009 (ip), vehicle: saline with Tween-80
[3] = dose: 100.0 mg/kg/injection, schedule: Q04DX003 (ip), vehicle: saline with Tween-80
[4] = dose: 200.0 mg/kg/injection, schedule: Q04DX003 (ip), vehicle: saline with Tween-80
[5] = dose: 400.0 mg/kg/injection, schedule: Q04DX003 (ip), vehicle: saline with Tween-80
[6] = dose: 100.0 mg/kg/injection, schedule: Q01DX009 (ip), vehicle: saline with Tween-80
[7] = dose: 200.0 mg/kg/injection, schedule: Q01DX009 (ip), vehicle: saline with Tween-80
[8] = dose: 50.0 mg/kg/injection, schedule: Q01DX009 (ip), vehicle: saline
[9] = dose: 50.0 mg/kg/injection, schedule: Q04DX003 (ip), vehicle: saline
[10] = dose: 100.0 mg/kg/injection, schedule: Q04DX003 (ip), vehicle: saline
[11] = dose: 100.0 mg/kg/injection, schedule: Q04DX003 (ip), vehicle: Klucel (hydroxypropylcellulose) (HPC)
[12] = dose: 200.0 mg/kg/injection, schedule: Q01DX009 (ip), vehicle: Klucel (hydroxypropylcellulose) (HPC)
[13] = dose: 200.0 mg/kg/injection, schedule: Q04DX003 (ip), vehicle: Klucel (hydroxypropylcellulose) (HPC)
[14] = dose: 400.0 mg/kg/injection, schedule: Q04DX003 (ip), vehicle: Klucel (hydroxypropylcellulose) (HPC)

Measured: T/C

Cc1ccc(C(=O)CCl)c(C)c1
inactive: dose: 12.5 mg/kg/injection, schedule: Q01DX009 (ip), vehicle: saline with Tween-80 100 % of control | [1] 100 % of control | [2] 95 % of control

Cc1ccc(NS(=O)(=O)c2ccccc2)nc1
inactive: [3] 112 % of control | [4] 116 % of control | [5] 96 % of control

O=C(NC(=S)N1CC=CCC1)c1ccccc1
inactive: [2] 87 % of control | [6] 111 % of control | [7] 108 % of control | dose: 400.0 mg/kg/injection, schedule: Q01DX009 (ip), vehicle: saline with Tween-80 101 % of control

CC/C(=C\c1ccccc1)[N+](=O)[O-]
inactive: dose: 12.5 mg/kg/injection, schedule: Q01DX009 (ip), vehicle: saline 96 % of control | dose: 25.0 mg/kg/injection, schedule: Q01DX009 (ip), vehicle: saline 114 % of control and 124 % of control | [8] 123 % of control | [9] 109 % of control | [10] 100 % of control

Nc1nc(=O)n(C2OC(CO)C(O)C2O)c2scnc12 (configuration not stated)
inactive: dose: 25.0 mg/kg/injection, schedule: Q04DX003 (ip), vehicle: saline 108 % of control | [9] 118 % of control | [10] 118 % of control | dose: 200.0 mg/kg/injection, schedule: Q04DX003 (ip), vehicle: saline 108 % of control

C=CC1CN2CCC1CC2C(O)c1ccnc2ccc(OC)cc12 (configuration not stated)
inactive: [8] 120 % of control | dose: 100.0 mg/kg/injection, schedule: Q01DX009 (ip), vehicle: saline 95 % of control | dose: 200.0 mg/kg/injection, schedule: Q01DX009 (ip), vehicle: saline 100 % of control

COC(=O)C(c1ccccc1)C(Br)C(=O)c1ccccc1 (configuration not stated)
inactive: [11] 100 % of control | [12] 88 % of control | [13] 104 % of control | [14] 90 % of control

COc1ccc(C(=O)/C=N/O)cc1
inactive: [1] 86 % of control | [2] 100 % of control | [6] 90 % of control

CC(CCC(=O)NC12CC3CC(CC(C3)C1)C2)C1CCC2C3CCC4CC(OC=O)CCC4(C)C3CC(OC=O)C12C (configuration not stated)
inactive: dose: 12.5 mg/kg/injection, schedule: Q04DX002 (ip), vehicle: saline with Tween-80 91 % of control | dose: 25.0 mg/kg/injection, schedule: Q04DX002 (ip), vehicle: saline with Tween-80 110 % of control

Cc1ccc(S(=O)(=O)c2ccc(S(=O)(=O)c3ccc(C)cc3)c3c2no[n+]3[O-])cc1
inactive: dose: 15.0 mg/kg/injection, schedule: Q01DX009 (ip), vehicle: saline with Tween-80 107 % of control | dose: 30.0 mg/kg/injection, schedule: Q01DX009 (ip), vehicle: saline with Tween-80 112 % of control | dose: 60.0 mg/kg/injection, schedule: Q01DX009 (ip), vehicle: saline with Tween-80 112 % of control

O=[N+]([O-])c1ccc(/C=N/c2ncc(Br)s2)o1
inactive: [1] 120 % of control | dose: 25.0 mg/kg/injection, schedule: Q04DX003 (ip), vehicle: saline with Tween-80 104 % of control and 118 % of control | [6] 90 % of control | [3] 118 % of control | [4] 90 % of control

CCCC(C1=CC(C)(C)c2ccccc2C1=O)c1ccc(Br)cc1 (configuration not stated)
inactive: dose: 75.0 mg/kg/injection, schedule: Q01DX009 (ip), vehicle: Klucel (hydroxypropylcellulose) (HPC) 109 % of control | dose: 100.0 mg/kg/injection, schedule: Q01DX009 (ip), vehicle: Klucel (hydroxypropylcellulose) (HPC) 100 % of control | [11] 100 % of control | dose: 150.0 mg/kg/injection, schedule: Q01DX009 (ip), vehicle: Klucel (hydroxypropylcellulose) (HPC) 113 % of control | [12] 95 % of control and 100 % of control | [13] 100 % of control | dose: 300.0 mg/kg/injection, schedule: Q01DX009 (ip), vehicle: Klucel (hydroxypropylcellulose) (HPC) 100 % of control | dose: 400.0 mg/kg/injection, schedule: Q01DX009 (ip), vehicle: Klucel (hydroxypropylcellulose) (HPC) 95 % of control | [14] 100 % of control

O=C(COc1ccc(Cl)cc1Cl)Nc1ccc(F)cc1
inactive: [3] 95 % of control | [4] 100 % of control | [5] 90 % of control

CCCCCCCCCCSc1ncnc2nc[nH]c12
inactive: [2] 87 % of control | [3] 100 % of control | [7] 108 % of control | [4] 100 % of control

Cc1nc(N)c2nc(SCc3ccc(Cl)cc3)c(N)nc2n1
inactive: [4] 86 % of control | [5] 97 % of control
